Assay results reported in patent US6184254A, “Methods of identifying modulators of perivascular sensory nerve Ca2+ receptors” (priority 1998, dated 2001).
Entries after “also recorded” stand apart in the source; their conditions may differ. Read-outs that look alike come from different tables or passages of the source. Ends that are not written are not given here.

Tested on: Ca^2+-induced relaxation of mesenteric resistance arteries
Experiment: Inhibition of Ca2+-induced relaxation of mesenteric resistance arteries by antagonists or denervation
Parameters: species or system rat
Settings: for Result (antagonist effect on Ca2+-induced relaxation): Table 3
[1] = FIG. 16, 3 μM miconazole, 1 μM pentobarbital or 1 μM quinacrine, p<0.05

4 Cl-D-Phe^6,Leu^17 -VIP was tested, and the “Result (antagonist effect on Ca2+-induced relaxation)” value (from here on “Result”) was “no effect”.

For `COc1ccccc1CN[C@H]1CCCN[C@H]1c1ccccc1` [CP99, 994], the “Result” value was “no effect”.

For `COC(=O)[C@@H](N)CCCNC(=N)N[N+](=O)[O-]` [L-NAME], the “effect on Ca2+-induced relaxation” value (100 μM L-NAME) was “inhibited/reversed”, the “effect on Ca2+-induced relaxation” value (L-NAME pre-treatment) was “partially inhibited” and the “Result” value was “no effect”.

In the case of `CC(=O)NC1(c2ccccc2)CCN(CC[C@H](CN(C)C(=O)c2ccccc2)c2ccc(Cl)c(Cl)c2)CC1` [SR48968], the “Result” value is reported as “no effect”.

With `CC(=O)N(C)C1(c2ccccc2)CCN(CCC[C@]2(c3ccc(Cl)c(Cl)c3)CCCN(C(=O)c3ccccc3)C2)CC1` [SR 142801] the “Result” value was “no effect”.

In the case of `CC(C)Oc1cccc(CC(=O)N2CCC[C@](CC[N+]34CCC(c5ccccc5)(CC3)CC4)(c3ccc(Cl)c(Cl)c3)C2)c1` [SRI40333], the “Result” value is reported as “no effect”.

`CC[N+](CC)(CC)CC` [TEA] was tested, and the “effect on Ca2+-induced relaxation” value was “completely inhibited; also recorded: antagonized”.

`CSCC[C@H](NC(=O)[C@H](CC(C)C)NC(=O)CNC(=O)[C@H](Cc1ccccc1)NC(=O)[C@H](Cc1ccccc1)NC(=O)[C@H](CCC(N)=O)NC(=O)[C@H](CCC(N)=O)NC(=O)[C@@H]1CCCN1C(=O)CNC(=O)[C@H](CC(C)C)NC(=O)[C@H](CC(C)C)NC(=O)[C@H](Cc1ccc(O)cc1)NC(=O)CNC(=O)[C@H](C)NC(=O)[C@H](CO)NC(=O)[C@H](CC(N)=O)NC(=O)[C@H](CC(C)C)NC(=O)[C@@H](NC(=O)[C@H](Cc1c[nH]c2ccccc12)NC(=O)CN)[C@@H](C)O)C(N)=O` [galantide] was tested, and the “Result” value was “no effect”.

`COc1ccc2c(c1)c(CC(=O)O)c(C)n2C(=O)c1ccc(Cl)cc1` [indomethacin] was tested, and the “Result” value (at 1.5 mM Ca2+) was “partial effect”.

With `Clc1ccc(COC(Cn2ccnc2)c2ccc(Cl)cc2Cl)c(Cl)c1` (stereo not shown) [miconazole] the “effect on Ca2+-induced relaxation” value (5 mM Ca2+) was “significantly attenuated”, the “effect on Ca2+-induced relaxation” value (Ca2+ 1.5-3 mM) was “completely antagonized” and the “effect on Ca2+-induced relaxation” value [1] was “significantly attenuated”.

With `Oc1ccc2c3c1O[C@H]1c4[nH]c5c(c4C[C@@]4(O)[C@@H](C2)N(CC2CC2)CC[C@]314)C[C@@]1(O)[C@H]2Cc3ccc(O)c4c3[C@@]1(CCN2CC1CC1)[C@H]5O4` [nor-binaltorphmine] the “Result” value was “no effect”.

With `CCCC(C)C1(CC)C(=O)NC(=O)NC1=O` (stereo not shown) [pentobarbital] the “effect on Ca2+-induced relaxation” value was “significantly attenuated”, the “effect on Ca2+-induced relaxation” value (5 mM Ca2+) was “significantly attenuated” and the “effect on Ca2+-induced relaxation” value (Ca2+ 1.5-3 mM) was “completely antagonized”.

For `Oc1ccccc1` [phenol], the “effect on Ca2+-induced relaxation” value was “completely blocks and often reverses; also recorded: significantly inhibited; also recorded: completely inhibits”.

With `CCN(CC)CCCC(C)Nc1c2ccc(Cl)cc2nc2ccc(OC)cc12` (stereo not shown) [quinacrine] the “effect on Ca2+-induced relaxation” value [1] was “significantly attenuated” and the “effect on Ca2+-induced relaxation” value (PLA2 blockade) was “significantly attenuates”.

For `CN1[C@@H]2CC[C@H]1C[C@@H](O)C2` [tropine], the “Result” value was “no effect”.

For “CGRP (8-37): CGRP antagonist (VTHRLAGLLSRSGGVVKNNFVPTNVGSKAF; ends and bridges not checked; UniProt P06881 90-119, looked up, fragment)”, the “Result” value was “no effect”.

For spantide II, the “Result” value was “no effect”.

With tin protoporphorin IX the “Result” value was “no effect”.
